Data set [1] deals with rat paw-oedema / inflammation (Brewer's Yeast). The data set can be described thus: Anti-inflammatory effect, Brewer's Yeast rat paw oedema, intraperitoneal administration. The format is in vivo, male Sprague-Dawley rats. As to the method:
(§1) Ten animals were killed 5 hours after the challenge in order to determine the effect of the test substance on the accute inflammatory process. The remaining members of the group were sacrificed after 24 hours and used to assess the effect of the test compound on the secondary, residual inflammatory action of yeast. The average amount of oedema and swelling produced in the right foot by yeast was obtained by subtracting the weight of the foot from the weight obtained of the control (saline) side.
Groups of 20 male Sprague-Dawley rats, weighing 250 (±10 g) were acclimatized to the test environment. The test compound was made up in physiological saline at concentrations allowing the selected dose to be administered intraperitoneally at the rate of 0.1 ml/100 g body weight.
The test agent was administered 1.0 hour before the challenge with Brewer's Yeast. Otherwise the test procedure described under (a) was followed.

A short description of data set [2]: Acute toxicity after a single oral or parenteral dose. The settings on record: intraperitoneal, after 7 days. It counts as in vivo, male Sprague-Dawley rats. The protocol:
(§2) The test substance was suspended in a 1% m/v Tylose® solution made up with distilled water. The selected test doses of the compounds were administered by force feeding at the rate of 1.0 ml/100 g body weight 24.0 hrs and 1.0 hour before the intra-plantar administration of the phlogegenic agent. Brewer's Yeast served as the inflammation-inducing substance and was injected at the rate of 0.1 ml of a 2% suspension made up in sterile saline into the right hind paw. (The left hind paw was injected with 0.1 ml saline only and served as the control foot.)
Male rats of Sprague-Dawley strain and with a weight of 250-350 g were injected intraperitoneally with 0.1-0.5 ml/100 g body weight of an aqueous solution or suspension. Oral administration was carried out as described under (a). Examination of the acute toxicity was carried out after 7 days.

The next data set can be described thus: Water solubility. The format is physicochemical. The settings on record: for solubility / Solubility in g per l water at 25° C, white gel / thick syrup: water. The protocol:
It is primarily for the purpose of providing water solubility to the steryl monosaccharides that the compounds of this invention, the dicarboxylic acid half ester derivatives and their salts, were prepared.
A solution of succinic anhydride (8.6 g, 0.086 mole) and anhydrous sitosteryl β-D-glucoside (24.7 g, 0.043 mole) in anhydrous pyridine (90 ml) was refluxed for 30 minutes and then left to stand for 20 hrs before it was poured into vigorously stirred conc. hydrochloric acid (104 ml) at ice temperature. The mixture was allowed to stand for 2 hrs before the precipitated hemiester was gravity filtered. The collected solid, washed with iced water until the washings were neutral, was dried in a vacuum oven and a small sample of this was dried to constant weight for a C and H analysis.
The standard preparation of the sterolin dicarboxylic acid hemiester salts illustrated by the preparation of the disodium salt of sitosteryl β-D-glucoside dihemisuccinate. The wet sitosteryl β-D-glucoside dihemisuccinate washed clear of hydrochloric acid as described in Example 1 was transferred quantitatively into a sodium bicarbonate solution (200 ml water; 7.2 g or 0.086 mole NaHCO3). This mixture cooled to 0° C. was slowly poured with vigorous stirring into ice cold acetone (2000 ml) and the white precipitate of the salt was allowed to settle over 18 hrs in an ice chest before it was filtered under suction. The moist salt was thoroughly stirred into ice cold acetone (200 ml), the slurry suction filtered and the filter cake washed with cold ether before the product was dried in a vacuum oven at 40° C. for 48 hrs followed by 2×1 minute heating in a microoven.

Data set [3] in a line: Oral toxicity studies in primates (acute and prolonged daily dosing). The format is in vivo. As to the method:
(§3) Preferred daily doses of the compounds of this invention depend on the purpose for which they are used, administered or applied and also whether they are given by oral or parenteral routes or applied topically. […] They may be toxic when administered in large amounts and therefore the oral route is preferred. […] If taken for prophylactic purposes by healthy individuals a daily dose of 0.01-0.1 mg is adequate, although this may be raised to 0.2-1 mg for elderly people. Depending on the severity of a degenerative disease daily doses of 0.3-44 mg may be used for initial treatment until on improvement of the particular condition, a maintenance dose of 0.03-0.6 mg per day is advisable. Lower daily doses are required when these compounds are administered parenterally (e.g. via an intravenous drip). It should be noted that with respect to animals a preferred dose is difficult to predict since it is known that marked differences exist between species and even various breeds or strains of animals in their ability to utilise or react to steroidal glycosides (44-46).

Data set [4] can be described thus: Oral toxicity studies in rats (acute and prolonged daily dosing). The format is in vivo. The protocol: as §3
For data set [5] the following is noted: in vivo, ip.
Data set [6] deals with rat paw-oedema / inflammation (Brewer's Yeast). The data set can be described thus: Anti-inflammatory effect, Brewer's Yeast rat paw oedema, oral administration. The format is in vivo, male Sprague-Dawley rats. As to the method: Twenty male Sprague-Dawley rats, (original supplier: Blue Spruce; Altamont U.S.A.) weighing 240-260 g, were acclimatized for at least 10 days to the test environment.
as §2
as §1, with “side. The results obtained from the treated groups were compared to the relevant control groups which received a similar volume of the aqueous Tylose®-solution only and the difference was expressed as a percentage increase or decrease over the control value.” for “side.”

≈ marks a conversion by molar mass, not a printed value.

`CCC(CCC(C)C1CCC2C3CC=C4CC(OC5OC(COC(=O)CCC(=O)O)C(OC(=O)CCC(=O)O)C(OC(=O)CCC(=O)O)C5OC(=O)CCC(=O)O)CCC4(C)C3CCC12C)C(C)C` (stereo not drawn) [S.G. tetrahemisuccinate]: in data set [1] ((50) mg/kg body weight, TABLE 2, time not given), the “Reduction of the inflammatory response in the rat-paw oedema trials in %” value was -46.3%. Besides, the results for the “Acute toxicity after a single dose (% at dose)” value in data set [2] (100 mg/kg) and in data set [2] (200 mg/kg) were 20% and 100%, respectively.

With `CC[C@H](CC[C@@H](C)[C@H]1CC[C@H]2[C@@H]3CC=C4C[C@@H](O[C@@H]5O[C@H](CO)[C@@H](O)[C@H](O)[C@H]5O)CC[C@]4(C)[C@H]3CC[C@]12C)C(C)C` [S.G., sitosteryl β-D-glucoside, reference compound], the solubility in the data set “Water solubility” was 0.009 mg/mL (≈ 15.6 µM).

For “sitosteryl β-D-glucoside dihemisuccinate [S.G. dihemisuccinate]”, in the data set “Water solubility”, the “Solubility (state or result in words)” value was “colloidal”; the “Solubility in g per l water at 25° C, white gel / thick syrup” value is recorded as 5×10^2 g per l; the solubility is given as 1,25×10^3 g/l. Moreover, in data set [3] (in vivo), the “Tolerance of prolonged daily doses” value is reported as “well tolerated”. In addition, the “Acute toxicity studies, toxic effects” value in data set [3] (primates, oral, even in excess of 1000-2000 mg/kg) was “no toxic effects”. Moreover, in data set [4] (rat, in vivo), the “Tolerance of prolonged daily doses” value is listed as “well tolerated”. The “Acute toxicity studies, toxic effects” value in data set [4] (rats, oral, even in excess of 1000-2000 mg/kg) is given as “no toxic effects”. Besides, the “Acute toxicity after a single dose (% at dose)” value in data set [2] (100 mg/kg) came out at 25%.

In turn, `CC[C@H](CC[C@@H](C)[C@H]1CC[C@H]2[C@@H]3CC=C4C[C@@H](O[C@@H]5O[C@H](CO)[C@@H](O[C@H]6O[C@H](CO)[C@@H](O)[C@H](O)[C@H]6O)[C@H](O)[C@H]5O)CC[C@]4(C)[C@H]3CC[C@]12C)C(C)C` [S.M., sitosteryl β-D-maltoside, reference compound] returned a solubility in “Water solubility” of 0.38 mg/mL (≈ 514 µM).

As for “disodium salt of sitosteryl β-D-glucoside dihemisuccinate [S.G. dihemisuccinate Na2 salt]”, the “Solubility in g per l water at 25° C, white gel / thick syrup” value in “Water solubility” is reported as 5×10^2 g per l. The solubility in the data set “Water solubility” was determined as 2000 mg/mL. The “Average percentage reduction of rat paw-oedema / inflammation” value is 27% in data set [1] (single dose 25 mg/kg 1 hour before challenge, after 5 hours); 14% in data set [1] (single dose 25 mg/kg 1 hour before challenge, after 24 hours); 47% in data set [1] (single dose 50 mg/kg 1 hour before challenge, after 5 hours); 35% in data set [1] (single dose 50 mg/kg 1 hour before challenge, after 24 hours); 8,5% in data set [6] (500 mg/kg given 24,0 and 1,0 hour before challenge, after 5 hours); 10,7% in data set [6] (500 mg/kg given 24,0 and 1,0 hour before challenge, after 24 hours). The “Average percentage reduction of rat paw-oedema / inflammation” value in data set [6] (1000 mg/kg given 24,0 and 1,0 hour before challenge, after 5 hours) is recorded as 14,5%; in data set [6] (1000 mg/kg given 24,0 and 1,0 hour before challenge, after 24 hours) it was 18,5%. Moreover, the “Adverse effects and tissue toxicity” value in data set [5] is “fewer adverse effects coupled with a lower tissue toxicity”.

In general, solubility refers to how much of the substance goes into solution per volume. High values mean much dissolved substance, low ones little dissolved substance.

Source of the values: US4254111A, “Sterolin products” (Roecar Holdings (Netherlands Antilles) NV, priority 1978, dated 1981).
